The text below walks through data of patent publication US20110207685A1, “Oral Formulations of Chemotherapeutic Agents” (priority 2008, published 2011).

One data set in a line: physchem. As to conditions: phosphate buffer (control for the cyclodextrin mixtures), aqueous buffer.
For data set [1] the following is noted: free drug; cited from earlier work.
The test system of another data set is HT29 cells. In words: In vitro cytotoxicity on HT29 cells. It is filed as cell-based. The conditions noted are these: Homo sapiens.
Data set [2] in a line: MTTD study, one administration per week during three weeks. It is filed as in vivo, mice. As to conditions: J = 0, 7, 14. The procedure:
The schedule of the MTTD studies was one administration per week during three weeks. Each dose was tested on a group of 3 animals and the animals were monitored for 2 weeks after the end of the last treatment, clinical toxicity signs were observed and the animals weight taken every two days.

The nature of data set [3]: Oral MTTD (tolerance) study on xenografted mice. The class given is in vivo. The conditions noted are these: for Clinical symptoms: po, J = 1 to 5, mice with s.c. HT-29 tumor. On the procedure: A tolerance and efficacy study on xenografted mice, in order to mimic as close as possible the in vivo model of colonic tumor, was carried out. As xenografted mice are very sensitive, the MTTD and efficacy study was done on mice with a subcutaneously implanted HT-29 colorectal human tumor cells.

Data set [4] can be described thus: Tolerance study (Step 1), relative body weight. As to conditions: oral IRN alone group (100 mg/kg po qd×5). The class given is in vivo, nude mice. The procedure: When subcutaneous HT29 xenografts are detectable and reach a mean tumor volume of 150 mm3, groups of mice are randomly affected to the treatments. Mice without tumors were eliminated.
Mice in the control group received vehicle under a 750 μl volume.
Toxicity of the different treatments are determined as: body weight loss percent (% BWL max)=100−(mean BWx/mean BW1x 100), where BWx is the mean BW at the day of maximal loss during the treatment and BW1 is the mean BW on the 1st day of treatment.
All animals are weighted during the whole treatment period, in order to adjust the volume of drug administration and to calculate the percent body weight loss due to the different treatments.

A short description of another data set: in vivo. As to conditions: mouse, plasma.

≈ marks a conversion by molar mass, not a printed value. Like-named read-outs stand apart in the source and are kept apart here.

Description for in vivo: Three mice were used per time-point. Only one sampling was performed on the control group.

Take `CC(=O)O[C@@]12CO[C@@H]1C[C@H](O)[C@@]1(C)C(=O)[C@H](O)C3=C(C)[C@@H](OC(=O)[C@H](O)[C@@H](NC(=O)OC(C)(C)C)c4ccccc4)C[C@@](O)([C@@H](OC(=O)c4ccccc4)[C@H]21)C3(C)C` [docetaxel]: the solubility (commonly the concentration that dissolves in the medium under given conditions) in “physchem” worked out at 1.9 ± 0.1 µg/mL (≈ 2.35 µM).

For the compound `COc1cccc2c1C(=O)c1c(O)c3c(c(O)c1C2=O)C[C@@](O)(C(=O)CO)C[C@@H]3O[C@H]1C[C@H](N)[C@H](O)[C@H](C)O1` [doxorubicin, Doxorubicin], the “oral bioavailability compare to i. v. bioavailability” value in data set [1] was “about 5%”.

On to `CCc1c2c(nc3ccc(OC(=O)N4CCC(N5CCCCC5)CC4)cc13)-c1cc3c(c(=O)n1C2)COC(=O)[C@]3(O)CC` [IRN, Irinotecan], for which the IC50 with HT29 cells (HT-29, 96 h, read-out: IC50 [IRN], experiment GF411, HT29 cells, 4 days contact, as IRN concentration) is 0.75 µg/mL (≈ 1.28 µM); in the data set with HT29 cells (HT-29, 96 h, read-out: IC50 [IRN], experiment GF464, HT29 cells, 4 days contact, as IRN concentration), 0.8 µg/mL (≈ 1.36 µM); with HT29 cells (HT-29, 96 h, read-out: IC50 [IRN], experiment GF522, HT29 cells, 4 days contact, as IRN concentration), 0.85 µg/mL (≈ 1.45 µM); in the data set with HT29 cells (HT-29, read-out: Mean IC 50 [IRN], mean of three experiments, HT29 cells, as IRN concentration), 0.8 µg/mL (≈ 1.36 µM). For the same compound, the Clinical symptoms result in data set [2] (iv, 25 mg/kg BW) was “No clinical sign”; in data set [2] (po, 200 mg/kg BW), “No clinical sign”; in data set [3] (100 mg/kg BW) it was “Weight loss, but mice”; in data set [3] (200 mg/kg BW), “Important weight loss”. Further, in data set [3] (orally every day for 5 days, xenografted mice), the “toxicity / tolerance” value is listed as “induced an important weight loss”. The body weight loss result in data set [4] is reported as “more than 15%”. Besides, the AUC (usually concentration integrated over time) was found to be 1280 ng·h/mL in the data set “in vivo” (iv, 20 mg/kg) and 1740 ng·h/mL in the data set “in vivo” (po, 100 mg/kg). For the same compound, the bioavailability – broadly, dose-corrected exposure relative to a reference, in per cent – in “in vivo” (oral, 100 mg/Kg) was determined as 27.1%. Further, in “in vivo” (po, 100 mg/kg), the Cmax (in general, the highest concentration seen after dosing) turned out to be 477 ng/mL. The time of peak concentration (Tmax) (in general, the time at which the peak concentration occurs) in the data set “in vivo” (po, 100 mg/kg) worked out at 2.06 h.
